# According to paper PMC9503608, “An Insight into Symmetrical Cyanine Dyes as Promising Selective Antiproliferative Agents in Caco-2 Colorectal Cancer Cells” (Molecules, 2022):
# Where two headings read alike, the source gives them in different places.
# Legend:
# [1] = test system: Caco-2 colorectal adenocarcinoma cell line; test: MTT cell viability assay, Caco-2; type: cell-based, human; conditions: for SI Caco-2 (selectivity index, cancer versus NHDF): Caco-2 versus NHDF; for IC50: 72 h of incubation, MTT, protected from light; for viability at 10 µM: read-out: cell viability percentage in relation with control, Caco-2
# Procedure: (§1) Caco-2, MCF-7, PC-3, and NHDF cell lines were obtained from the American Type Culture Collection (ATCC) and maintained in 75 cm^2 culture flasks in a humidified atmosphere at 37 °C with 5% carbon dioxide using a LEEC Culture Safe Precision CO2 Incubator. The culture media was renewed every two to three days. The NHDF cell line was cultured in Roswell Park Memorial Institute (RPMI) medium supplemented with 10% of inactivated fetal bovine serum (FBS), 2 mM of L-glutamine, 10 mM of 4-(2-hydroxyethyl)-1-piperazineethanesulfonic acid (HEPES), 1 mM of sodium pyruvate, and 1% of antibiotic/antimycotic mixture (Ab; 10,000 U/mL of penicillin G, […] of streptomycin, and 25 µg/mL of amphotericin B). The PC-3 cell line was also cultured in RPMI 1640 medium supplemented with 10% inactivated FBS and 1% of an antibiotic mixture (Sp; 10,000 U/mL of penicillin G and […] of streptomycin). The Caco-2 and MCF-7 cell lines were grown in Dulbecco’s Modified Eagle Medium (DMEM). Caco-2 was supplemented with 20% of inactivated FBS and 1% of Sp. On the other hand, the MCF-7 medium was complemented with 10% of inactivated FBS and 1% of Ab. All manipulations were performed in a Labculture Class II A2 Biological Safety Cabinet.
# (§2) After the near confluency of cultures, cells were detached with a solution of 0.125 g/L trypsin and 0.02 g/L ethylenediaminetetracetic acid (EDTA), counted using the trypan blue method, resuspended, and seeded in 96-well culture plates (100 µL, 2 × 10^4 cells/mL). Following 48 h of adherence, cells were treated with the test solutions and incubated for 72 h. This incubation, as well as the solution manipulations, were performed in an environment protected from light. After the incubation, the medium was replaced with a fresh incomplete culture medium (without FBS and Ab or Sp) and MTT solution (5 mg/mL in phosphate buffer saline (PBS)). After additional incubation for 4 h, the MTT medium was removed, formazan crystals were dissolved in DMSO, and the optical density of each well was measured at 570 nm using a microplate spectrophotometer Bio-Rad xMark. Untreated cells were used as a negative control and 5-FU as the positive control. The results were expressed as the relative cell proliferation relative to the negative control cells. […] To determine the IC50 values, Caco-2, MCF-7, PC-3, and NHDF cells were exposed to increasing concentrations between 0.001 and 100 μM.
# [2] = test system: normal human dermal fibroblasts (NHDF); test: MTT cell viability assay, NHDF; type: cell-based; conditions: for IC50: 72 h of incubation, MTT, protected from light; for cell viability percentage in relation with control, NHDF: single concentration of 10 µM, mean ± SD
# Procedure: as §1, §2
# [3] = MTT cell viability assay, NHDF; type: cell-based, human; conditions: human, normal human dermal fibroblasts (NHDF), single concentration of 10 µM, 72 h, mean ± SD; read-out: cell viability percentage in relation with control, NHDF
# Procedure: as §1, §2
# [4] = test system: MCF-7 breast adenocarcinoma cell line; test: MTT cell viability assay, MCF-7; type: cell-based, human; conditions: for viability at 10 µM: Homo sapiens, read-out: cell viability percentage in relation with control, MCF-7
# Procedure: as §1, §2
# [5] = test system: PC-3 prostate adenocarcinoma cell line; test: MTT cell viability assay, PC-3; type: cell-based, human
# Procedure: as §1, §2
# [6] = MTT cell viability assay, Caco-2; type: cell-based, human; conditions: human, 72 h, read-out: SI Caco-2 (selectivity index, cancer versus NHDF)
# Procedure: as §1, §2
# [7] = Homo sapiens, Caco-2, 72 h, single concentration of 10 µM, 72 h, mean ± SD
# [8] = MCF7, 72 h, single concentration of 10 µM, 72 h, mean ± SD
# [9] = Homo sapiens, 72 h, single concentration of 10 µM, 72 h, mean ± SD; read-out: cell viability percentage in relation with control, PC-3
# [10] = single concentration of 10 µM, 72 h, mean ± SD
SMILES,"IC50 ([1]; Homo sapiens, Caco-2, 72 h)",melting point,"SI Caco-2 (selectivity index, cancer versus NHDF) ([1]; 72 h)","viability at 10 µM [1, 7]","IC50 ([2]; Homo sapiens, NHDF, 72 h)","viability at 72 h, 10 µM [3]","viability at 10 µM [4, 8]","viability at 10 µM [5, 9]","selectivity ratio at 72 h ([6]; Caco-2, Caco-2 versus NHDF)",also measured
"CN1C(=Cc2sc3ccccc3[n+]2C)Sc2ccccc21.[Br-] [Dye 3, 3-Methyl-2-((3-methylbenzo[d]thiazol-2(3H)-ylidene)methyl)benzo[d]thiazol-3-ium bromide]",520 nM,,0.8,1.68 ± 0.53%,410 nM,,,1.27 ± 0.31%,,"cell viability percentage in relation with control, NHDF ([2]; 72 h): 3.93 ± 0.75%; cell viability percentage in relation with control, MCF-7 [4, 10]: 0.52 ± 0.39%"
"CN1C(=Cc2sc3ccccc3[n+]2C)Sc2ccccc21.[I-] [Dye 4, 3-Methyl-2-((3-methylbenzo[d]thiazol-2(3H)-ylidene)methyl)benzo[d]thiazol-3-ium iodide]",,,1.8,,,,,,,"IC50 ([1]; listed as 4): 400 nM; cell viability percentage in relation with control, Caco-2 [1, 10]: 3.01 ± 0.74%; IC50 ([2]; listed as 4): 730 nM; cell viability percentage in relation with control, NHDF ([2]; 72 h): 3.82 ± 0.21%; cell viability percentage in relation with control, MCF-7 [4, 10]: 2.26 ± 0.82%; cell viability percentage in relation with control, PC-3 [5, 10]: 1.18 ± 0.36%"
"CN1C(=Cc2sc3ccccc3[n+]2C)Sc2ccccc21.Cc1ccc(S(=O)(=O)[O-])cc1 [Dye 5, 3-Methyl-2-((3-methylbenzo[d]thiazol-2(3H)-ylidene)methyl)benzo[d]thiazol-3-ium 4-methylbenzenesulfonate]",,,2.4,,,,,,,"IC50 ([1]; listed as 5): 280 nM; cell viability percentage in relation with control, Caco-2 [1, 10]: 2.55 ± 0.58%; IC50 ([2]; listed as 5): 680 nM; cell viability percentage in relation with control, NHDF ([2]; 72 h): 4.42 ± 0.55%; cell viability percentage in relation with control, MCF-7 [4, 10]: 1.55 ± 0.53%; cell viability percentage in relation with control, PC-3 [5, 10]: 1 ± 0.18%"
CCN1C(=Cc2sc3ccccc3[n+]2CC)Sc2ccccc21 [Dye 6],300 nM,,,3.52 ± 0.3%,490 nM,3.37 ± 0.65%,1.08 ± 0.23%,2.06 ± 0.89%,1.6,
"CCN1C(=Cc2sc3ccccc3[n+]2CC)Sc2ccccc21.[O-][Cl+3]([O-])([O-])[O-] [Dye 7, 3-Ethyl-2-((3-ethylbenzo[d]thiazol-2(3H)-ylidene)methyl)benzo[d]thiazol-3-ium perchlorate]",,296 to 297 °C,,,,3.34 ± 0.14%,,,,"viability at 10 µM ([1]; Homo sapiens, Caco-2, 72 h): 3.11 ± 0.94%; IC50 ([1]; Homo sapiens, Caco-2): 280 nM; selectivity ratio at 72 h ([6]; Caco-2 versus NHDF): 3; IC50 ([2]; Homo sapiens, NHDF): 830 nM; viability at 10 µM ([4]; MCF7, 72 h): 0.96 ± 0.61%; viability at 10 µM ([5]; Homo sapiens, 72 h, read-out: cell viability percentage in relation with control, PC-3): 1.19 ± 0.29%"
"CCCCCN1C(=Cc2sc3ccccc3[n+]2CCCCC)Sc2ccccc21.[I-] [Dye 10, 3-Pentyl-2-((3-pentylbenzo[d]thiazol-2(3H)-ylidene)methyl)benzo[d]thiazol-3-ium iodide]",1240 nM,164 to 166 °C,0.7,1.02 ± 0.42%,670 nM,0.1 ± 0.36%,0.87 ± 2.53%,0.97 ± 0.26%,0.6,IC50 [1]: 1000 nM
"CCCCCCCCCCN1C(=CC=C2CCCC(C=Cc3[se]c4ccccc4[n+]3CCCCCCCCCC)=C2Cl)[Se]c2ccccc21.[I-] [Dye 18, 2-(2-(2-Chloro-3-(2-(3-decylbenzo[d][1,3]selenazol-2(3H)-ylidene)ethylidene)cyclohex-1-en-1-yl)vinyl)-3-decylbenzo[d][1,3]selenazol-3-ium iodide]",,221 to 224 °C,,,,36.6 ± 1.75%,,,,"viability at 10 µM ([1]; Homo sapiens, Caco-2, single concentration of 10 µM, 72 h, mean ± SD): 47.2 ± 5.29%; viability at 10 µM ([4]; MCF7, single concentration of 10 µM, 72 h, mean ± SD): 51.8 ± 10.1%; viability at 10 µM ([5]; Homo sapiens; single concentration of 10 µM, 72 h, mean ± SD; read-out: cell viability percentage in relation with control, PC-3): 28.4 ± 7.73%"
"CC1(C)C(=CC=C2CCCC(C=CC3=[N+](CCCCS(=O)(=O)O)c4ccccc4C3(C)C)=C2Cl)N(CCCCS(=O)(=O)O)c2ccccc21 [Dye 19, 2-(2-(2-Chloro-3-(2-(3,3-dimethyl-1-(4-sulfobutyl)indolin-2-ylidene)ethylidene)cyclohex-1-en-1-yl)vinyl)-3,3-dimethyl-1-(4-sulfobutyl)-3H-indol-1-ium iodide]",,,,57.4 ± 1.75%,,42 ± 1.76%,94.4 ± 7.99%,51.1 ± 5.32%,,

# Further lines, with some results ahead:
"IC50 ([1]; Homo sapiens, Caco-2, 72 h)",melting point,SMILES,"SI Caco-2 (selectivity index, cancer versus NHDF) ([1]; 72 h)","viability at 10 µM [1, 7]","IC50 ([2]; Homo sapiens, NHDF, 72 h)","viability at 72 h, 10 µM [3]","viability at 10 µM [4, 8]","viability at 10 µM [5, 9]","selectivity ratio at 72 h ([6]; Caco-2, Caco-2 versus NHDF)",also measured
650 nM,,"CN1/C(=C/c2sc3ccccc3[n+]2C)Sc2ccccc21 [Dye 2, Methyl-2-((3-methylbenzo[d]thiazol-2(3H)-ylidene)methyl)benzo[d]thiazol-3-ium chloride]",1.2,2.18 ± 0.64%,770 nM,5.64 ± 1.15%,0.85 ± 0.34%,1.29 ± 0.24%,,
950 nM,249 to 250 °C,"C(=C1Sc2ccccc2N1Cc1ccccc1)c1sc2ccccc2[n+]1Cc1ccccc1.[I-] [Dye 8, 3-Benzyl-2-((3-benzylbenzo[d]thiazol-2(3H)-ylidene)methyl)benzo[d]thiazol-3-ium iodide]",,0.32 ± 0.03%,930 nM,2.04 ± 0.39%,1.47 ± 1.13%,1.16 ± 0.49%,1,
1000 nM,226 to 227 °C,"COC(=O)CN1C(=Cc2sc3ccccc3[n+]2CC(=O)OC)Sc2ccccc21.[Br-] [Dye 9, 3-(2-Methoxy-2-oxoethyl)-2-((3-(2-methoxy-2-oxoethyl)benzo[d]thiazol-2(3H)-ylidene)methyl)benzo[d]thiazol-3-ium bromide]",,47 ± 6.81%,,47.9 ± 3.64%,49 ± 13.9%,46.8 ± 14%,0.7,
1240 nM,232 to 233 °C,"CCCCCCCCCCN1C(=Cc2sc3ccccc3[n+]2CCCCCCCCCC)Sc2ccccc21.[I-] [Dye 11, 3-Decyl-2-((3-decylbenzo[d]thiazol-2(3H)-ylidene)methyl)benzo[d]thiazol-3-ium iodide]",,0.66 ± 0.44%,720 nM,0.15 ± 0.38%,0.1 ± 0.69%,0.94 ± 0.11%,0.6,
390 nM,,"CCN1C(=CC=Cc2oc3ccccc3[n+]2CC)Oc2ccccc21 [Dye 15, 3-Ethyl-2-(3-(3-ethylbenzo[d]oxazol-2(3H)-ylidene)prop-1-en-1-yl)benzo[d]oxazol-3-ium iodide]",,8.58 ± 0.92%,4020 nM,3.72 ± 0.23%,6.03 ± 0.77%,13.3 ± 1.9%,10.4,
,97 to 98 °C,"c1ccc2sc(Cc3nc4ccccc4s3)nc2c1 [bisbenzothiazole 1, bis(benzo[d]thiazol-2-yl)methane]",,59.6 ± 5.45%,,31 ± 0.57%,55.7 ± 4.97%,53.2 ± 9.68%,,
